Data from patent US5189211A, “Sulfonamide derivatives” (Taisho Pharmaceutical Co., Ltd., priority 1990, dated 1993).
Like-named read-outs stand apart in the source and are kept apart here.

Columns and labels:
[1] = test system: blood platelet aggregation; test: In vitro test in rabbit: inhibition of U-46619-induced blood platelet aggregation in platelet rich plasma (thromboxane A2 antagonism); format: cell-based, male New Zealand strain house rabbits; settings: rabbit PRP, U-46619 final concentration 5 μM, 37° C., 3 minutes preincubation, measured for 5 minutes, read-out: IC50 (concentration of the test drug required to bring 50% inhibition to the maximum aggregation rate)
Protocol: Experiment [In Vitro Test in Rabbit]
The remaining blood was centrifuged at 1500 g for 10 minutes to give platelet poor prasma (PPP). Platelet count of PRP was adjusted to 50-60×10^4 /μl by dilution of PRP by PPP.
Namely, a compound of Formula I as a test drug was dissolved in dimethyl sulfoxide and adjusted to the desired concentration with physiological saline solution.

thrombocytopenia = test: Test of acute thrombocytopenia in mice (U-46619-induced); format: in vivo, male ICR mice; settings: administered peritoneally 30 seconds prior to U-46619 25 μg/kg caudal vein, platelet count 30 seconds after injection, class by dose giving more than 50% inhibition
Protocol: Experiment 2 [Test of Acute Thrombocytopenia in Mice]
Male ICR mice weighting 25 g were used (7-11 animals for each group).
Thrombocytopenia was induced by injection of an aggregation-inducing substance (U-46619) having thromboxane A2 -like action in amount of 25 μg/kg from the caudal vein. At 30 seconds after injection of U-46619, 20 μl of the blood was collected from the femoral artery, and the platelet counts were immediately measured by means of an automatic blood cell counter (CC-180A, made by Toa Iyoudenshi Co.).
The compound of Formula I was suspended in 5% gum arabic solution and administered peritoneally to the test animals 30 seconds prior to injection of U-46619. As a comparative drug, BM was tested as above.
The inhibition ratio of the thrombocytopenia was calculated by the proportion of the decrease ratio of platelet count of the group treated with the test drug to that of the group with 5% gum arabic solution, and the activity was determined by the following criterion.
+: More than 50% inhibition at a dose of 1.0 mg/kg
++: More than 50% inhibition at a dose of 0.3 mg/kg
+++: More than 50% inhibition at a dose of 0.1 mg/kg

[2] = Oryctolagus cuniculus, Platelet

Row | Molecule | IC50 [1, 2] [nM] | Activity (inhibition ratio of the thrombocytopenia) (thrombocytopenia) | IC50 [1] [nM]
1 | O=C(O)CCc1ccc(SCCNS(=O)(=O)c2ccc([N+](=O)[O-])cc2)cc1 [Compound No. 103, 3-{4-[2-(4-Nitrophenylsulfonylamino)ethylthio]phenyl}propionic acid] | 1500 |  | 
2 | O=C(O)CCc1ccc(SCCNS(=O)(=O)c2ccc(Br)cc2)cc1 [Compound No. 55, 3-{4-[2-(4-Bromophenylsulfonylamino)ethylthio]phenyl}propionic acid] | 1700 |  | 
3 | O=C(O)COc1ccc(SCCNS(=O)(=O)c2ccc(Br)cc2)cc1 [Compound No. 78, 4-[2-(4-Bromophenylsulfonylamino)ethylthio]phenoxyacetic acid] | 5200 |  | 
4 | O=C(O)CCc1ccc(SCCNS(=O)(=O)c2ccc(F)cc2)cc1 [Compound No. 54, 3-{4-[2-(4-Fluorophenylsulfonylamino)ethylthio]phenyl}propionic acid] | 2400 |  | 
5 | O=C(O)COc1c(F)cc(SCCNS(=O)(=O)c2ccccc2)cc1F [Compound No. 67, 2,6-difluoro-4-[2-(phenylsulfonylamino)ethylthio]phenoxyacetic acid] | 1800 | + (More than 50% inhibition at a dose of 1.0 mg/kg) | 
6 | O=C(O)CCc1ccc(SCCNS(=O)(=O)c2ccc(Cl)cc2)cc1 [Compound No. 52, 3-{4-[2-(4-chlorophenylsulfonylamino)ethylthio]phenyl}propionic acid] | 1100 |  | 
7 | O=C(O)Cc1ccc(SCCNS(=O)(=O)c2ccc(Cl)cc2)cc1 [Compound No. 93, 4-[2-(4-Chlorophenylsulfonylamino)ethylthio]phenylacetic acid] | 1500 | + (More than 50% inhibition at a dose of 1.0 mg/kg) | 
8 | O=C(O)COc1ccc(SCCNS(=O)(=O)c2ccc(Cl)cc2)cc1 [Compound No. 74, 4-[2-(4-Chlorophenylsulfonylamino)ethylthio]phenoxyacetic acid] | 4500 |  | 
9 | CCOC(=O)COc1ccc(CSCCNS(=O)(=O)c2ccc(Cl)cc2)cc1 [Compound No. 63, Ethyl 4-[2-(4-chlorophenylsulfonylamino)ethylthiomethyl]phenoxyacetate] | 7300 |  | 
10 | 4-[2-(4-Methylsulfonylamino)ethylthio]phenylacetic acid [Compound No. 94] |  |  | 3100
11 | COc1ccc(S(=O)(=O)NCCSc2ccc(OCC(=O)O)c(F)c2)cc1 [Compound No. 107, 2-Fluoro-4-[2-(4-methoxyphenylsulfonylamino)ethylthio]phenoxyacetic acid] | 7400 |  | 
12 | O=C(O)COc1ccc(SCCNS(=O)(=O)c2ccc(F)cc2)cc1F [Compound No. 105, 2-Fluoro-4-[2-(4-fluorophenylsulfonylamino)ethylthio]phenoxyacetic acid] | 4500 |  | 
13 | Cc1ccc(S(=O)(=O)NCCSc2ccc(CCC(=O)O)cc2)cc1 [Compound No. 53, 3-{4-[2-(4-Methylphenylsulfonylamino)ethylthio]phenyl}propionic acid] | 5800 |  | 
14 | O=C(O)COc1ccc(CCNS(=O)(=O)c2ccccc2)cc1 [BM, 4-[2-(phenylsulfonylamino)ethyl]phenoxyacetic acid, reference compound] | 12000 | + (More than 50% inhibition at a dose of 1.0 mg/kg) | 
15 | O=C(O)COc1ccc(SCCNS(=O)(=O)c2ccc(Cl)cc2)cc1F [Compound No. 71, 2-Fluoro-4-[2-(4-chlorophenylsulfonylamino)ethylthio]phenoxyacetic acid] | 1500 | + (More than 50% inhibition at a dose of 1.0 mg/kg) | 
16 | O=C(O)COc1ccc(SCCNS(=O)(=O)c2ccc(Br)cc2)cc1F [Compound No. 106, 2-Fluoro-4-[2-(4-bromophenylsulfonylamino)ethylthio]phenoxyacetic acid] | 2000 |  | 

Now from value to molecule, other results behind:

Row | IC50 [1, 2] [nM] | Molecule | Activity (inhibition ratio of the thrombocytopenia) (thrombocytopenia) | IC50 [1] [nM]
17 | 670 | COc1ccc(S(=O)(=O)NCCSc2cc(F)c(OCC(=O)O)c(F)c2)cc1 [Compound No. 125, 2,6-Difluoro-4-[2-(4-methoxyphenylsulfonylamino)ethylthio]phenoxyacetic acid] |  | 
18 | 630 | O=C(O)Cc1ccc(SCCNS(=O)(=O)c2ccc(F)cc2)cc1 [Compound No. 112, 4-[2-(4-Fluorophenylsulfonylamino)ethylthio]phenylacetic acid] |  | 
19 | 300 | O=C(O)COc1c(F)cc(SCCNS(=O)(=O)c2ccc(Cl)cc2)cc1F [Compound No. 68, 2.6-Difluoro-4-[2-(4-chlorophenylsulfonylamino)ethylthio]phenoxyacetic acid] | +++ (More than 50% inhibition at a dose of 0.1 mg/kg) | 
20 | 920 | COc1ccc(S(=O)(=O)NCCSc2ccc(CC(=O)O)cc2)cc1 [Compound No. 114, 4-[2-(4-Methoxyphenylsulfonylamino)ethylthio]phenylacetic acid] |  | 
21 | 540 | Cc1ccc(S(=O)(=O)NCCSc2cc(F)c(OCC(=O)O)c(F)c2)cc1 [Compound No. 69, 2,6-Difluoro-4-[2-(4-methylphenylsulfonylamino)ethylthio]phenoxyacetic acid] | ++ (More than 50% inhibition at a dose of 0.3 mg/kg) | 
22 | 930 | O=C(O)Cc1ccc(SCCNS(=O)(=O)c2ccc([N+](=O)[O-])cc2)cc1 [Compound No. 115, 4-[2-(4-Nitrophenylsulfonylamino)ethylthio]phenylacetic acid] |  | 
23 | 330 | O=C(O)COc1c(F)cc(SCCNS(=O)(=O)c2ccc(Br)cc2)cc1F [Compound No. 120, 2,6-Difluoro-4-[2-(4-bromophenylsulfonylamino)ethylthio]phenoxyacetic acid] |  | 
24 | 750 | O=C(O)COc1c(F)cc(SCCNS(=O)(=O)c2ccc([N+](=O)[O-])cc2)cc1F [Compound No. 121, 2,6-Difluoro-4-[2-(4-nitrophenylsulfonylamino)ethylthio]phenoxyacetic acid] |  | 
25 | 580 | O=C(O)COc1c(F)cc(SCCNS(=O)(=O)c2ccc(F)cc2)cc1F [Compound No. 119, 2,6-Difluoro-4-[2-(4-fluorophenylsulfonylamino)ethylthio]phenoxyacetic acid] |  | 
26 | 300 | O=C(O)Cc1ccc(SCCNS(=O)(=O)c2ccc(Br)cc2)cc1 [Compound No. 113, 4-[2-(4-Bromophenylsulfonylamino)ethylthio]phenylacetic acid] |  | 
